Measurements reported in patent publication US20260356851A1, “TRICYCLIC COMPOUNDS AND USES THEREOF” (HUTCHMED LIMITED, priority 2023, published 2026).

Columns and labels:
Type in all cases: cell-based
[1] = target: T1, pERK1/2 (Thr202/Tyr204), NCI-1H441 (KRAS G12V) (Homo sapiens, UniProt P01116, G12V); assay: Assay of intracellular pERK1/2 (Thr202/Tyr204) phosphorylation in NCI-H441 cells (KRAS G12V); settings: pERK1/2, 2 days, read-out: NCI-H441 (KRAS G12V) IC50
T1 construct: pERK1/2 HTRF read-out
T1 sequence (P01116 1-188 isoform P01116-2 G12V): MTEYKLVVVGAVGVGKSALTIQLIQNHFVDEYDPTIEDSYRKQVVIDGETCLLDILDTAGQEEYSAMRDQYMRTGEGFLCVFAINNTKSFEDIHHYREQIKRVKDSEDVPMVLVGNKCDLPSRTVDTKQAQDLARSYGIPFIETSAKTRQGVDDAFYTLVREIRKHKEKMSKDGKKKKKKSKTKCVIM
How it was run: (§1)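 Cells (10000-12000/well) exposed to 3-fold compound dilutions for 2 days at 37 °C, then lysed; pERK1/2 (Thr202/Tyr204) measured by HTRF with d2 and cryptate antibodies, 665/615 nm ratio.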

[2] = target: T2, pERK1/2 (Thr202/Tyr204), PANC-1 (KRAS G121D) (Homo sapiens, UniProt P01116, G12D); assay: Assay of intracellular pERK1/2 (Thr202/Tyr204) phosphorylation in PANC-1 cells (KRAS G12D); settings: pERK1/2, 2 days, read-out: PANC-1 (KRAS G12D) IC50
T2 construct: pERK1/2 HTRF read-out
T2 sequence (P01116 1-188 isoform P01116-2 G12D): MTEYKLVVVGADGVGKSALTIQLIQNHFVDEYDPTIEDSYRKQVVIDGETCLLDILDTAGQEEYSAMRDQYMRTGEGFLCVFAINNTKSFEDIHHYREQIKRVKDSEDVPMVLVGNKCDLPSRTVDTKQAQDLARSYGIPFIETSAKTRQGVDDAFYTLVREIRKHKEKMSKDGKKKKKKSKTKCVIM
How it was run: as §1

[3] = target: T3, pERK1/2 (Thr202/Tyr204), NCI-1H358 (KRAS G12C) (Homo sapiens, UniProt P01116, G12C); assay: Assay of intracellular pERK1/2 (Thr202/Tyr204) phosphorylation in NCI-H358 cells (KRAS G12C); settings: pERK1/2, 2 days, read-out: NCI-H358 (KRAS G12C) IC50
T3 construct: pERK1/2 HTRF read-out
T3 sequence (P01116 1-188 isoform P01116-2 G12C): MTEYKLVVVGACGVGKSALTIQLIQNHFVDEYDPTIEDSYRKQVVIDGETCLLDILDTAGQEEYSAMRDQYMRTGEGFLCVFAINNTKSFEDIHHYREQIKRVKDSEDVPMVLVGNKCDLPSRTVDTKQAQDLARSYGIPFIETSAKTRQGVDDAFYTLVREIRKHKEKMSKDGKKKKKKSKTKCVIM
How it was run: as §1

Row | Compound | IC50 [1] [nM] | IC50 [2] [nM] | IC50 [3] [nM]
1 | Cc1cc(N)nc(-c2nc3c4c(nc(OC[C@@]56CCCN5C[C@H](F)C6)nc4c2F)N(C(C)c2cccnc2N)[C@@H](C)CO3)c1 (stereo partly drawn) [Compound 329] | > 100 | > 100 | > 100
2 | CC(c1cccnc1N)N1c2nc(OC[C@@]34CCCN3C[C@H](F)C4)nc3c(F)c(N4CC(O)Cc5ccccc54)nc(c23)OC[C@@H]1C (stereo partly drawn) [Compound 331] | > 100 | > 100 | 38
3 | CC(c1cccnc1N)N1c2nc(OC[C@@]34CCCN3C[C@H](F)C4)nc3c(F)c(-c4c(C5CC5)c(Cl)cc5[nH]ncc45)nc(c23)OC[C@@H]1C (stereo partly drawn) [Compound 332] | 0.9 | 0.3 | 0.4
4 | CC(c1cccnc1N)N1c2nc(OC[C@@]34CCCN3C[C@H](F)C4)nc3c(F)c(-c4c(F)cc(F)c5sc(N)nc45)nc(c23)OC[C@@H]1C (stereo partly drawn) [Compound 333] | 1 | 6 | 1
5 | Cc1cc2[nH]ncc2c(-c2nc3c4c(nc(OC[C@@]56CCCN5C[C@H](F)C6)nc4c2F)N(C(C)c2cc(Cl)cnc2N)[C@@H](C)CO3)c1C(F)(F)F (stereo partly drawn) [Compound 334, (*)5-Chloro-3-(1-((9S)-4-fluoro-2-(((2R,7aS)-2-fluorotetrahydro-1H-pyrrolizin-7a(5H)-yl)methoxy)-9-methyl-5-(6-methyl-5-(trifluoromethyl)-1H-indazol-4-yl)-8,9-dihydro-1OH-7-oxa-1,3,6,10-tetraazacyclohepta[de]naphthalen-10-yl)ethyl)pyridin-2-amine] | 0.5 | 0.6 | 0.3
6 | CC(c1cccnc1N)N1c2nc(OC[C@@]34CCCN3C[C@H](F)C4)nc3c(F)c(-c4cccc5nc(N)nn45)nc(c23)OC[C@@H]1C (stereo partly drawn) [Compound 335] | > 100 | > 100 | > 100
7 | CC(c1cccnc1N)N1c2nc(OC[C@@]34CCCN3C[C@H](F)C4)nc3c(F)c(-n4nc(N)c5ccccc54)nc(c23)OC[C@@H]1C (stereo partly drawn) [Compound 336, (*)1-((9S)-10-(1-(2-aminopyridin-3-yl)ethyl)-4-fluoro-2-(((2R,7aS)-2-fluorotetrahydro-1H-pyrrolizin-7a(5H)-yl)methoxy)-9-methyl-9,10-dihydro-8H-7-oxa-1,3,6,10-tetraazacyclohepta[de]naphthalen-5-yl)-1H-indazol-3-amine] | > 100 | > 100 | > 100
8 | CC(c1cccnc1N)N1c2nc(OC[C@@]34CCCN3C[C@H](F)C4)nc3c(F)c(-c4c(C(F)(F)F)ccc5ncccc45)nc(c23)OC[C@@H]1C (stereo partly drawn) [Compound 337] | > 100 | > 100 | > 100
9 | Cc1cc(F)c2sc(N)nc2c1-c1nc2c3c(nc(OC[C@@]45CCCN4C[C@H](F)C5)nc3c1F)N(C(C)c1cccnc1N)[C@@H](C)CO2 (stereo partly drawn) [Compound 340] | 4 | 39 | 2
10 | Cc1cc2[nH]ncc2c(-c2nc3c4c(nc(OC[C@@]56CCCN5C[C@H](F)C6)nc4c2F)N([C@H](C)c2cc(F)cnc2N)[C@@H](C)CO3)c1C(F)(F)F [Compound 342] | 0.4 | 0.3 | 0.2
11 | CC(c1cccnc1N)N1c2nc(OC[C@@]34CCCN3C[C@H](F)C4)nc3c(F)c(-c4c5c(cc6[nH]ncc46)CCC5)nc(c23)OC[C@@H]1C (stereo partly drawn) [Compound 343] | 0.6 | 2 | 0.2
12 | CC(c1cccnc1N)N1c2nc(OC[C@@]34CCCN3C[C@H](F)C4)nc3c(F)c(-c4c5ccccc5cc5[nH]ncc45)nc(c23)OC[C@@H]1C (stereo partly drawn) [Compound 348] | 0.5 | 0.5 | 0.2
13 | CC(c1cccnc1N)N1c2nc(OC[C@@]34CCCN3C[C@H](F)C4)nc3c(F)c(-c4cc(=O)[nH]c5ccccc45)nc(c23)OC[C@@H]1C (stereo partly drawn) [Compound 360] | > 100 | > 100 | > 100
14 | CC(c1cccnc1N)N1c2nc(OC[C@@]34CCCN3C[C@H](F)C4)nc3c(F)c(-c4c5cn[nH]c5cc5cccc(F)c45)nc(c23)OC[C@@H]1C (stereo partly drawn) [Compound 362] | 0.3 | 0.4 | 0.2
15 | Cc1c(C(F)(F)F)c(-c2nc3c4c(nc(OC[C@@]56CCCN5C[C@H](F)C6)nc4c2F)N(C(C)c2cccnc2N)[C@@H](C)CO3)c2cn[nH]c2c1F (stereo partly drawn) [Compound 363] | 0.3 | 0.3 | 0.2
16 | Cc1cc2[nH]ncc2c(-c2nc3c4c(nc(OC[C@@]56CCCN5C[C@H](F)C6)nc4c2F)N([C@@H](C)c2cc(F)cnc2N)[C@@H](C)CO3)c1C(F)(F)F [Compound 364] | > 100 | > 100 | > 100
17 | Cc1c(F)c(N)cc(-c2nc3c4c(nc(OC[C@@]56CCCN5C[C@H](F)C6)nc4c2F)N([C@H](C)c2cc(F)cnc2N)[C@@H](C)CO3)c1C(F)(F)F [Compound 365] | 1 | 1 | 0.2
